From PubChem BioAssay (NCI)
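A five-concentration, 48-hour dose response in 96-well plates underlies each endpoint, interpolated linearly between surrounding concentrations. GI50 marks 50% less growth. At the TGI there is no net growth.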

Assays:
Test in all cases: growth of human tumour cells (NCI), 48 h
TK-10 renal = system: TK-10 renal
HCC-2998 colon = system: HCC-2998 colon
M14 melanoma = system: M14 melanoma
NCI-H23 lung = system: NCI-H23 lung
U251 CNS = system: U251 CNS
MCF7 breast = system: MCF7 breast
SNB-75 CNS = system: SNB-75 CNS
K-562 leukemia = system: K-562 leukemia
HOP-92 NSCLC = system: HOP-92 NSCLC
IGROV1 ovarian = system: IGROV1 ovarian
RPMI-8226 leukemia = system: RPMI-8226 leukemia
UACC-257 melanoma = system: UACC-257 melanoma
SK-MEL-28 melanoma = system: SK-MEL-28 melanoma
KM12 colon = system: KM12 colon
COLO 205 colon = system: COLO 205 colon
SK-OV-3 ovarian = system: SK-OV-3 ovarian
HT29 colon = system: HT29 colon
MALME-3M melanoma = system: MALME-3M melanoma
SF-539 CNS = system: SF-539 CNS
HS 578T breast = system: HS 578T breast
NCI-H460 lung = system: NCI-H460 lung
OVCAR-3 ovarian = system: OVCAR-3 ovarian
NCI-H226 lung = system: NCI-H226 lung
ACHN renal = system: ACHN renal
HOP-62 NSCLC = system: HOP-62 NSCLC
T-47D breast = system: T-47D breast
LOX IMVI melanoma = system: LOX IMVI melanoma
CAKI-1 renal = system: CAKI-1 renal
NCI/ADR-RES ovarian = system: NCI/ADR-RES ovarian
BT-549 breast = system: BT-549 breast
SF-268 CNS = system: SF-268 CNS
UACC-62 melanoma = system: UACC-62 melanoma
MOLT-4 leukemia = system: MOLT-4 leukemia
CCRF-CEM leukemia = system: CCRF-CEM leukemia
SK-MEL-5 melanoma = system: SK-MEL-5 melanoma
HCT-15 colon = system: HCT-15 colon
OVCAR-5 ovarian = system: OVCAR-5 ovarian
SNB-19 CNS = system: SNB-19 CNS
MDA-MB-231 breast = system: MDA-MB-231 breast
HL-60(TB) leukemia = system: HL-60(TB) leukemia
A498 renal = system: A498 renal
SN12C renal = system: SN12C renal
SR leukemia = system: SR leukemia
OVCAR-8 ovarian = system: OVCAR-8 ovarian
MDA-MB-435 = system: MDA-MB-435
786-0 renal = system: 786-0 renal
PC-3 prostate = system: PC-3 prostate
A549 NSCLC = system: A549 NSCLC
RXF 393 renal = system: RXF 393 renal
SK-MEL-2 melanoma = system: SK-MEL-2 melanoma
SF-295 CNS = system: SF-295 CNS
OVCAR-4 ovarian = system: OVCAR-4 ovarian
NCI-H522 lung = system: NCI-H522 lung
SW-620 colon = system: SW-620 colon
UO-31 renal = system: UO-31 renal
DU-145 prostate = system: DU-145 prostate
HCT-116 colon = system: HCT-116 colon

O=C1NC(=NCc2cccs2)O/C1=C\c1ccc2ncccc2c1
GI50 (TK-10 renal): 2.89 µM
TGI (TK-10 renal): 9.61 µM
GI50 (HCC-2998 colon): 7.76 µM
TGI (HCC-2998 colon): > 25 µM
GI50 (M14 melanoma): 5 µM
TGI (M14 melanoma): 17 µM
GI50 (NCI-H23 lung): 7.9 µM
TGI (NCI-H23 lung): > 25 µM
GI50 (U251 CNS): 5.07 µM
TGI (U251 CNS): > 18.8 µM
GI50 (MCF7 breast): 5.02 µM
TGI (MCF7 breast): 23.7 µM
GI50 (SNB-75 CNS): 1.72 µM
TGI (SNB-75 CNS): 8.08 µM
GI50 (K-562 leukemia): 7.31 µM
TGI (K-562 leukemia): > 25 µM
GI50 (HOP-92 NSCLC): 1.51 µM
TGI (HOP-92 NSCLC): 9.66 µM
GI50 (IGROV1 ovarian): 3.51 µM
TGI (IGROV1 ovarian): 10.5 µM
GI50 (RPMI-8226 leukemia): 4.26 µM
TGI (RPMI-8226 leukemia): 17.3 µM
GI50 (UACC-257 melanoma): 3.74 µM
TGI (UACC-257 melanoma): 12.4 µM
GI50 (SK-MEL-28 melanoma): 5.87 µM
TGI (SK-MEL-28 melanoma): 18 µM
GI50 (KM12 colon): 7.45 µM
TGI (KM12 colon): 24.5 µM
GI50 (COLO 205 colon): 5.2 µM
TGI (COLO 205 colon): 12.8 µM
GI50 (SK-OV-3 ovarian): 4.1 µM
TGI (SK-OV-3 ovarian): 12.2 µM
GI50 (HT29 colon): 6.12 µM
TGI (HT29 colon): 21.2 µM
GI50 (MALME-3M melanoma): 4.85 µM
TGI (MALME-3M melanoma): 15.3 µM
GI50 (SF-539 CNS): 2.87 µM
TGI (SF-539 CNS): 8.59 µM
GI50 (HS 578T breast): 4.72 µM
TGI (HS 578T breast): 14.8 µM
GI50 (NCI-H460 lung): 6.62 µM
TGI (NCI-H460 lung): > 25 µM
GI50 (OVCAR-3 ovarian): 4.46 µM
TGI (OVCAR-3 ovarian): 12.6 µM
GI50 (NCI-H226 lung): 5.82 µM
TGI (NCI-H226 lung): > 19.8 µM
GI50 (ACHN renal): 4.07 µM
TGI (ACHN renal): 21.5 µM
GI50 (HOP-62 NSCLC): 6.1 µM
TGI (HOP-62 NSCLC): 18.9 µM
GI50 (T-47D breast): 2.98 µM
TGI (T-47D breast): 12.6 µM
GI50 (LOX IMVI melanoma): 5.87 µM
TGI (LOX IMVI melanoma): 19.4 µM
GI50 (CAKI-1 renal): 3.86 µM
TGI (CAKI-1 renal): 12.3 µM
GI50 (NCI/ADR-RES ovarian): 7.8 µM
TGI (NCI/ADR-RES ovarian): > 25 µM
GI50 (BT-549 breast): 3.15 µM
TGI (BT-549 breast): 13.3 µM
GI50 (SF-268 CNS): 5.34 µM
TGI (SF-268 CNS): 18.1 µM
GI50 (UACC-62 melanoma): 4.42 µM
TGI (UACC-62 melanoma): 11.5 µM
GI50 (MOLT-4 leukemia): 4.88 µM
TGI (MOLT-4 leukemia): 12.4 µM
GI50 (CCRF-CEM leukemia): 4.8 µM
TGI (CCRF-CEM leukemia): 16.7 µM
GI50 (SK-MEL-5 melanoma): 4.63 µM
TGI (SK-MEL-5 melanoma): 9.83 µM
GI50 (HCT-15 colon): 6.38 µM
TGI (HCT-15 colon): > 25 µM
GI50 (OVCAR-5 ovarian): 6.58 µM
TGI (OVCAR-5 ovarian): 23.9 µM
GI50 (SNB-19 CNS): 7.04 µM
TGI (SNB-19 CNS): > 25 µM
GI50 (MDA-MB-231 breast): 8.23 µM
TGI (MDA-MB-231 breast): > 25 µM
GI50 (HL-60(TB) leukemia): 4.64 µM
TGI (HL-60(TB) leukemia): 15.3 µM
GI50 (A498 renal): 0.606 µM
TGI (A498 renal): 4.81 µM
GI50 (SN12C renal): 5.86 µM
TGI (SN12C renal): > 25 µM
GI50 (SR leukemia): 2.58 µM
TGI (SR leukemia): 10.7 µM
GI50 (OVCAR-8 ovarian): 4.27 µM
TGI (OVCAR-8 ovarian): 16.6 µM
GI50 (MDA-MB-435): 4.51 µM
TGI (MDA-MB-435): 14.4 µM
GI50 (786-0 renal): 6.21 µM
TGI (786-0 renal): > 20.3 µM
GI50 (PC-3 prostate): 6.33 µM
TGI (PC-3 prostate): > 25 µM
GI50 (A549 NSCLC): 4.46 µM
TGI (A549 NSCLC): 12.5 µM
GI50 (RXF 393 renal): 4.63 µM
TGI (RXF 393 renal): 13.9 µM
GI50 (SK-MEL-2 melanoma): 4.2 µM
TGI (SK-MEL-2 melanoma): 9.82 µM
GI50 (SF-295 CNS): 5.03 µM
TGI (SF-295 CNS): 15.9 µM
GI50 (OVCAR-4 ovarian): 4.5 µM
TGI (OVCAR-4 ovarian): > 20.3 µM
GI50 (NCI-H522 lung): 2 µM
TGI (NCI-H522 lung): 8.34 µM
GI50 (SW-620 colon): 4.74 µM
TGI (SW-620 colon): 15.7 µM
GI50 (UO-31 renal): 4.99 µM
TGI (UO-31 renal): 14.1 µM
GI50 (DU-145 prostate): 5.82 µM
TGI (DU-145 prostate): > 25 µM
GI50 (HCT-116 colon): 4.92 µM
TGI (HCT-116 colon): > 25 µM
